Test results taken from US12064468B2, “Compositions and methods relating to a C-terminal peptide of troponin i with activity as a myofilament CA2+ desensitizer” (Wayne State University, priority 2019, dated 2024).
Ends that are not written are not given here.

What was measured:
[1] = test system: mAb TnI-1; test: ELISA titration of mAb TnI-1 against coated fusion proteins / cardiac TnI, non-denaturing; type: binding, mouse; details: non-denaturing conditions, protein coated on microtiter plate
Procedure: The ELISA procedure used in the present study for epitope structure and protein binding studies was performed as described in B. J. Biesiadecki et al., Journal of Biomedicine and Biotechnology, (2011) 1-8. Briefly, 96-well microtiter plates were coated with SUMO-HcTnI-C27 fusion protein, SUMO-HcTnI-C27-H fusion protein, purified bovine cardiac TnI, or R192H mutant mouse cardiac TnI (2 μg/mL in Buffer A containing 0.1 M KC1, 3 mM MgCl2, 10 mM PIPES, pH 7.0, 100 microliters/well) at 4° C. overnight. The plates were washed with Buffer T (0.05% Tween-20 in Buffer A) for 10 minutes and tapped dry. The wells were blocked using Buffer B (1% BSA in Buffer T) at room temperature for one hour. After washing again with Buffer T, serial dilutions of primary mAb against the coated protein were added in triplicates in Buffer D (dilution buffer, 0.1% BSA in Buffer T) and the plate was incubated at room temperature for two hours. After Buffer T washes, horseradish peroxidase (HRP)-conjugated anti-mouse immunoglobulin secondary antibody was added to incubate at room temperature for one hour. After final washes, H2O2-2,2′-azinobis-(3-ethylbenzthiazolinesulfonic acid) substrate solution was added for colorimetric development at room temperature and the plate was read using an automated microplate reader at 420 nm at 5 minute intervals for 30 minutes.
The ELISA experiments were done in triplicate wells. […]

[2] = test system: mAb TnI-1; test: Western blot with mAb TnI-1 (epitope in the C-terminal end of TnI); type: binding, mouse; details: after denaturing SDS-PAGE and blotting
Procedure: SDS-PAGE was performed to monitor the expression and identify the C27 peptide in intact TnI and fusion protein constructs. Briefly, 14% Laemmli SDS-PAGE with an acrylamide:bisacrylamide ratio of 29:1 was used to monitor protein expression. Protein samples were prepared by dissolving the proteins in an SDS-PAGE gel sample buffer containing 2% SDS and 3% β-mercaptoethanol. The samples were run on 0.75 mm gels at 20 mA per gel using a Bio-Rad mini-gel system. Resolved gels were stained with Coomassie Blue R-250 and de-stained using 10% acetic acid. The results were documented by imaging using a high resolution scanner.
Tris-Tricine small pore SDS-gels were utilized to […]. Briefly, 15% SDS-PAGE with acrylamide:bisacrylamide ratio of 20:1 was used to monitor the recovery of peptides. Samples were prepared as above. The gel was run using different anode and cathode buffers as described in H. Schagger et al., 166(2) (1987) 368-379; J.-P. Jin, Journal of Biological Chemistry 270(12) (1995) 6908-6916. The running conditions and documentation of results were carried out as above.
The protein bands resolved on SDS-PAGE gels were electrically transferred to nitrocellulose (NC) membranes or polyvinylidene difluoride (PVDF) membranes using a Bio-Rad semidry electrotransfer apparatus at 5 mA per cm^2. The membranes were then blocked with 1% bovine serum albumin (BSA) in Tris-buffered saline (TBS) at room temperature for 30 minutes, and incubated with mAb TnI-1 against an epitope in the C-terminal end of TnI or mAb 3C11 against the Tx3 metal affinity purification tag at 4° C. overnight. The TnI-1 mAb was raised using standard hybridoma technology in which the immunization of mouse used purified intact chicken fast TnI. […] The 3C11 mAb was generated using standard hybridoma technology in which the immunization used a Tx3 metal binding tag fusion protein. […] Washed with 0.05% Triton X-100 and 0.1% SDS in TBS, the membranes were further incubated with alkaline phosphatase-conjugated goat anti-mouse IgG secondary antibody, washed again, and developed in BCIP-NTB substrate solution. The results were documented by imaging using a high resolution scanner.

[3] = test system: mAb TnI-1; test: Competitive ELISA: peptide versus immobilized bovine cardiac TnI for mAb TnI-1; type: binding, mouse; details: physiologic solution
Procedure: To compare the folding and conformation of chemically synthesized HcTnI-C27 and HcTnI-C27-H peptides with that of the biologically synthesized counterparts, competitive ELISA affinity titrations against mAb TnI-1 were performed. 96-well microtiter plates were coated with purified bovine cardiac TnI in Buffer A and incubated at 4° C. overnight. Monoclonal antibody (mAb) TnI-1 was added, at a predetermined concentration that produces sub-maximal binding for the immobilized bovine cardiac TnI, to serial dilutions of biologically or chemically synthesized HcTnI-C27 and HcTnI-C27-H peptides. The effects of the peptides on competing with intact cardiac TnI for mAb TnI-1 were measured via HRP-anti-mouse IgG secondary antibody using standard ELISA procedure as described above.

[4] = target: T1, bovine cardiac α-tropomyosin (Bos taurus, UniProt Q5KR49); test: Competitive ELISA: peptide versus intact bovine cardiac TnI for tropomyosin binding; details: serial dilutions of peptide in solution
T1 construct: Purified bovine cardiac α-tropomyosin was coated on 96-well plate; from tissue; host or cells: bovine cardiac muscle (inferred from 'purified bovine cardiac')
Procedure: Competitive tropomyosin binding experiments were performed using a derivative protocol of the microtiter plate ELISA as described in B. J. Biesiadecki et al., Journal of Biomedicine and Biotechnology, (2011) 1-8. Purified bovine cardiac α-tropomyosin was coated on 96-well plate at 5 μg/mL in Buffer A at 4° C. overnight. Washed and blocked as above, bovine cardiac TnI was added, at a predetermined concentration that produces sub-maximal binding for the immobilized tropomyo sin, to serial dilutions of HcTnI-C27 or HcTnI-C27-H peptides for incubation at room temperature for 2 hours. The competition between the cardiac TnI C-terminal peptides and intact cardiac TnI for tropomyosin binding was measured via mAb 4H6 that recognizes an epitope in intact TnI but not in the C-terminal end peptide, see S. Akhter et al., FEBS Open Bio 5 (2015) 64-75, and HRP-anti-mouse IgG secondary antibody using standard ELISA procedure as described above.

[5] = test system: skinned mouse EDL muscle fibers; test: Force-pCa contractility of skinned mouse EDL muscle fibers; type: biochemical; details: 20 μM peptide, sarcomere length 2.7 μm
Text: Extensor digitorum longus (EDL) muscles were obtained from adult C57B/L6 mice immediately after euthanasia to prepare chemically permeabilized muscle preparations as described in J. Ochala et al., The FASEB Journal 25(6) (2011) 1903-1913; and S. M. Roche et al., Journal of Visualized Experiments 100 (2015). Briefly, whole EDL muscles were excised from mice and longitudinally dissected along fibers in a calcium free relaxing buffer. The muscle strips dissected were washed with the relaxing buffer and stored in a 35 mm dish at −20° C. in 50% glycerol relaxing-skinning solution to remove cellular membranes and the endogenous calcium handling system for use in the measurements of calcium sensitivity and force-pCa relationship.
For contractility studies, the storage dish was placed on a thermal-controlled metal stage at 0° C. under a dissection scope. Cryosectioned cardiac muscle strips selected with cardiomyocytes clearly organized along the long axis and EDL muscle fibers were mounted between two aluminum T-clips and transferred to an 8-chamber thermo-controlled stage (802D, Aurora Scientific) on an inverted microscope in relaxation buffer at 6-8° C. Seen through a 20× lens, the muscle preparation was connected to a force transducer (403A, Aurora Scientific) and a length controller (322-C, Aurora Scientific). The buffer was then switched to a skinning solution (relaxation buffer containing 1% Triton X-100) for 20 min to further permeabilize the muscle strips. After a wash with relaxation buffer, the permeabilized muscle strip was placed in pCa 9.0 buffer made by mixing the relaxing buffer (pCa 10.0) with an activation buffer (BES 40 mM, EGTA 10 mM, MgCl2 6.64 mM, ATP 6.23 mM, DTT, 1 mM, CaCl2 10 mM, creatine phosphate 33 mM, creatine kinase 200 U/mL, K-propionate 2.09 mM, pH 7.0, plus protease inhibitor cocktail, pCa 4.0) and the sarcomere length was measured through a digital camera attached to the microscope and adjusted to resting sarcomere length of 2.7 μm for EDL muscle fibers or 2.0 μm and 2.3 μm for cardiac muscle fibers. […]

[6] = test system: skinned rat ventricular papillary muscle; test: Force-pCa contractility of skinned rat ventricular papillary muscle sections; type: biochemical; details: 20 μM peptide
Procedure: (§1) Permeabilized rat and mouse left ventricular papillary muscle preparations were prepared using a skinned cryosection method. Papillary muscles were dissected with a portion of ventricular free wall in one end and valve tendon in the other end. The isolated papillary muscle was pinned down on a cork at the two ends using 30 gauge needles. A small drop of optimal cutting temperature (O.C.T.) compound was used to fill the space between the muscle tissue and the surface of the cork before flash freezing by quickly submerging in liquid nitrogen. The frozen papillary muscle was sectioned longitudinally at a thickness of 35 μm using a cryostat and collected on a glass slide. Four stacked razor blades were used to cut the muscle sections longitudinally into 140-150 μm wide strips. The muscle strips were washed in a relaxing buffer (BES 40 mM, EGTA 10 mM, MgCl2 6.86 mM, ATP 5.96 mM, DTT 1 mM, creatine phosphate 33 mM, creatine kinase 200 U/mL, K-propionate 3.28 mM, pH 7.0, plus protease inhibitor cocktail) and then gently transferred into myofibril relaxation buffer containing 50% glycerol in a 35 mm culture dish and stored at −20° C. for later use in force-pCa studies.
For contractility studies, the storage dish was placed on a thermal-controlled metal stage at 0° C. under a dissection scope. Cryosectioned cardiac muscle strips selected with cardiomyocytes clearly organized along the long axis and EDL muscle fibers were mounted between two aluminum T-clips and transferred to an 8-chamber thermo-controlled stage (802D, Aurora Scientific) on an inverted microscope in relaxation buffer at 6-8° C. Seen through a 20× lens, the muscle preparation was connected to a force transducer (403A, Aurora Scientific) and a length controller (322-C, Aurora Scientific). The buffer was then switched to a skinning solution (relaxation buffer containing 1% Triton X-100) for 20 min to further permeabilize the muscle strips. After a wash with relaxation buffer, the permeabilized muscle strip was placed in pCa 9.0 buffer made by mixing the relaxing buffer (pCa 10.0) with an activation buffer (BES 40 mM, EGTA 10 mM, MgCl2 6.64 mM, ATP 6.23 mM, DTT, 1 mM, CaCl2 10 mM, creatine phosphate 33 mM, creatine kinase 200 U/mL, K-propionate 2.09 mM, pH 7.0, plus protease inhibitor cocktail, pCa 4.0) and the sarcomere length was measured through a digital camera attached to the microscope and adjusted to resting sarcomere length of 2.7 μm for EDL muscle fibers or 2.0 μm and 2.3 μm for cardiac muscle fibers. Calcium activated force was examined at pCa 6.5, 6.3, 6.0, 5.8, 5.5, 5.0, and 4.5 at 15° C. using calcium-EGTA buffer sets made using a formula described in S. M. Roche et al., Journal of Visualized Experiments 100 (2015). HcTnI-C27 peptide was then added at 20 μM and the force-pCa measurements were repeated. The force-pCa curves were plotted and fitted using Hill exponential equation for data analysis, see S. M. Roche et al., Journal of Visualized Experiments 100 (2015).

[7] = test system: skinned mouse ventricular papillary muscle; test: Force-pCa contractility of skinned mouse ventricular papillary muscle; type: biochemical; details: 20 μM peptide
Procedure: as §1
For contractility studies, the storage dish was placed on a thermal-controlled metal stage at 0° C. under a dissection scope. […] After a wash with relaxation buffer, the permeabilized muscle strip was placed in pCa 9.0 buffer made by mixing the relaxing buffer (pCa 10.0) with an activation buffer (BES 40 mM, EGTA 10 mM, MgCl2 6.64 mM, ATP 6.23 mM, DTT, 1 mM, CaCl2 10 mM, creatine phosphate 33 mM, creatine kinase 200 U/mL, K-propionate 2.09 mM, pH 7.0, plus protease inhibitor cocktail, pCa 4.0) and the sarcomere length was measured through a digital camera attached to the microscope and adjusted to resting sarcomere length of 2.7 μm for EDL muscle fibers or 2.0 μm and 2.3 μm for cardiac muscle fibers. […]

[8] = sarcomere lengths 2.0 μm and 2.3 μm

| competition with intact bovine cardiac TnI for binding to immobilized tropomyosin [4] | Substance | binding of mAb TnI-1 in ELISA titration [1] | reactivity to mAb TnI-1 in Western blot [2] | competition with intact cardiac TnI for binding of mAb TnI-1, synthetic versus biologically made peptide [3] | cooperativity (n) of force-pCa curve [5] | maximum force production [5] | myofilament Ca2+ sensitivity [5] | pCa50 and cooperativity ([6]; sarcomere length 2.0 μm) | Ca2+-sensitization effect of increasing sarcomere length ([6]; sarcomere length 2.0 μm to 2.3 μm) | cooperativity ([6]; sarcomere length 2.3 μm) | pCa50 ([6]; sarcomere length 2.3 μm) | maximum force production [6, 8] | cooperativity ([7]; sarcomere length 2.0 μm, activated state) | Ca2+ sensitivity (force-pCa curves) [7, 8] | maximum force production [7, 8] |
| --- | --- | --- | --- | --- | --- | --- | --- | --- | --- | --- | --- | --- | --- | --- | --- |
| – | Tx3-SUMO-HcTnI-C27: HcTnI-C27 expressed as fusion protein with Tx3 metal-binding tag and SUMO substrate domain (ENREVGDWRKNIDALSGMEGRKKKFES; also: expressed as Tx3-SUMO fusion protein) | saturable binding of mAb TnI-1 | reactive to mAbTnI-1 | – | – | – | – | – | – | – | – | – | – | – | – |
| diminished | ENREVGDWHKNIDALSGMEGRKKKFES (C-terminal portion of human cardiac troponin I with H substitution for R at position 9) [HcTnI-C27-H, R192H mutant of the C-terminal 27 amino acid peptide of human cardiac TnI, reference compound] | – | remains non-reactive to mAb TnI-1 | drastically lost the binding affinity for mAb TnI-1 | – | – | – | – | – | – | – | – | – | – | – |
| dose-dependent competition | ENREVGDWRKNIDALSGMEGRKKKFES (C-terminal portion of human cardiac troponin I) [HcTnI-C27, the C-terminal 27 amino acid peptide of human cardiac TnI] | – | remains reactive to mAb TnI-1 | nearly identical effectiveness | significantly decreased cooperativity | not affected | myofilament Ca^2+-desensitization effect predominantly in the activated state | small effect on lowering pCa50 and cooperativity | diminished the Ca^2+-sensitization effect of increasing sarcomere length from 2.0 μm to 2.3 μm | trend of decreasing cooperativity | statistically significant right-shift of pCa50 | not affected | significantly lowered cooperativity | right-shifts of the force-pCa curves | not significantly affected |
| – | Tx3-SUMO-HcTnI-C27-H: HcTnI-C27-H (R192H mutant) expressed as Tx3-SUMO fusion protein (ENREVGDWHKNIDALSGMEGRKKKFES; also: expressed as Tx3-SUMO fusion protein) [reference compound] | clearly detectable but significantly decreased binding to mAb TnI-1 | lost binding to mAb TnI-1 | – | – | – | – | – | – | – | – | – | – | – | – |
